Broadly, the MIC is the least concentration at which growth counts as inhibited.

These results are taken from patent publication US4269834A, “Copper complexes of isoquinazolines” (priority 1977, dated 1981).

This test has as its system Mycoplasma gallisepticum. The experiment in a line: Activity against Mycoplasma gallisepticum (minimum inhibiting concentration). It counts as cell-based. The conditions noted are these: for MIC M. gall. with Cu: with Cu (50 μg/ml Cu^2+); for MIC: without added Cu; for MIC with Cu: media containing 50 μg/ml Cu^2+. The source says: The following tables show some activities--expressed as minimum inhibiting concentration (MIC)--of the prepared compounds against various micro-organisms. The compounds are identified by reference to the Example in which they are described. When more than one compound is mentioned in an Example, they are distinguished by a number between parentheses, corresponding to their order of occurrence, for instance: VI (2) refers to the second compound prepared according to Example VI. The term "with Cu" refers to tests conducted in media containing 50 μg/ml Cu^2+.
The activities of the following compounds, not mentioned in the Examples, were also measured.

[1] abbreviates: Mycoplasmoides gallisepticum, Table IVb, read-out: MIC M. gall.
Setting [2] is: Mycoplasmoides gallisepticum, Table I, read-out: MIC.

Structures are written as SMILES. Values after ≈ are worked out from the molar mass of the structure shown. Where two headings read alike, the source gives them in different places.

For the compound `c1ccc(-c2ncc3ccccc3n2)nc1` [B], the “MIC M. gall. with Cu” value (Table IVb) was determined as 0.5 µg/mL.
Still for that read-out and setting: under `Clc1ccc2nc(-c3ccccn3)ncc2c1` [C] stands 0.8 µg/mL.
As for `Nc1ccc2ccc3ccc(N)nc3c2n1` [E], the MIC under setting [1] was 50 µg/mL (≈ 238 µM). The “MIC M. gall. with Cu” value (Table IVb) was found to be 0.8 µg/mL.
Regarding `Nc1nc(-c2ccccn2)cc2ccccc12.Nc1nc(-c2ccccn2)cc2ccccc12.O=[N+]([O-])[O-].O=[N+]([O-])[O-].[Cu+2]` [Example V, bis[1-amino-3-(2-pyridyl)isoquinoline]cupric nitrate], the MIC (Table I) was 3 µg/mL.
Consider `Cl.Nc1nc(-c2ccccn2)cc2cc(Cl)ccc12` [Example VII, 1-amino-6-chloro-3-(2-pyridyl)isoquinoline hydrochloride], for which the “MIC with Cu” value (Table I) was found to be 0.4 µg/mL.
Still for that read-out and setting: the figure for `Cl.Nc1nc(-c2ccccn2)cc2cc(Br)ccc12` [Example X, 1-Amino-6-bromo-3-(2-pyridyl)isoquinoline hydrochloride] is 0.4 µg/mL.
In the case of `C=Cn1ccnc1-c1nc(N)c2ccccc2n1` [Example XVIIIa, 4-amino-2-(1-ethenyl-1H-imidazole-2-yl)quinazoline], the MIC under setting [2] was over 100 µg/mL. Further, under “Table I”, the “MIC with Cu” value was 0.2 µg/mL.
Turning to `C=Cn1ccnc1-c1cc2ccccc2c(N)n1` [Example XVIIc, 1-amino-3-(1-ethenyl-1H-imidazole-2-yl) isoquinoline], the MIC under setting [2] was over 100 µg/mL. The “MIC with Cu” value (Table I) worked out at 0.2 µg/mL.
On to `Nc1ccc2ccc3cccnc3c2n1` [F], for which the minimal inhibitory concentration (MIC) under setting [1] was 25 µg/mL (≈ 128 µM). Besides, the “MIC M. gall. with Cu” value (Table IVb) was 0.8 µg/mL.
`COc1ccc2ccc3cccnc3c2n1` [G]: the minimal inhibitory concentration (MIC) under setting [1] was over 100 µg/mL. Also, the “MIC M. gall. with Cu” value (Table IVb) amounted to 3 µg/mL.
Compound `Nc1nc(-c2ccccn2)cc2c(Cl)cccc12.Nc1nc(-c2ccccn2)cc2c(Cl)cccc12.O=[N+]([O-])[O-].[Cu+]` [IIa, Bis[1-amino-5-chloro-3-(2-pyridyl)isoquinoline]cuprous nitrate] came in with a minimum inhibitory concentration (MIC) (Table I) of 1.5 µg/mL.
For the compound `Cc1ccc2cc(-c3ccccn3)nc(N)c2c1.Cc1ccc2cc(-c3ccccn3)nc(N)c2c1.O=[N+]([O-])[O-].[Cu+]` [IIb, Bis[1-amino-7-methyl-3-(2-pyridyl)isoquinoline]cuprous nitrate], under “Table I”, the MIC worked out at 6 µg/mL.
Turning to `Nc1nc(-c2ccccn2)cc2ccccc12.Nc1nc(-c2ccccn2)cc2ccccc12.O=[N+]([O-])[O-].[Cu+]` [IIc, Bis[1-amino-3-(2-pyridyl)isoquinoline]cuprous nitrate], where the note is “Table I”, the “MIC with Cu” value worked out at 0.4 µg/mL and the MIC turned out to be 3 µg/mL.
The like results for `O=[N+]([O-])[O-].[Cu+].c1cnc2c(c1)ccc1cccnc12.c1cnc2c(c1)ccc1cccnc12` [IId, Bis(1,10-phenanthroline)cuprous nitrate] were, in that order, 25 µg/mL and 12.5 µg/mL.
The compound `Clc1ccc2ccc3ccc(Cl)nc3c2n1.Clc1ccc2ccc3ccc(Cl)nc3c2n1.O=[N+]([O-])[O-].[Cu+]` [IIe, Bis(2,9-dichloro-1,10-phenanthroline)cuprous nitrate] displayed an MIC (Table I) of 25 µg/mL.
The same measure, in the same setting: under `Nc1nc(-c2ccccn2)cc2ccccc12.O=[N+]([O-])[O-].O=[N+]([O-])[O-].[Cu+2]` [IVa, Mono[1-amino-3-(2-pyridyl)isoquinoline]cupric nitrate] stands 1.5 µg/mL.
`Nc1nc(-c2ccccn2)cc2c(Cl)cccc12.O=[N+]([O-])[O-].O=[N+]([O-])[O-].[Cu+2]` [IVb, Mono[1-amino-5-chloro-3-(2-pyridyl)isoquinoline]cupric nitrate] registered an MIC (Table I) of 0.8 µg/mL.
The same measure, in the same setting: under `Cc1cccc(-c2cc3ccccc3c(N)n2)n1.O=[N+]([O-])[O-].O=[N+]([O-])[O-].[Cu+2]` [IVc, Mono[1-amino-3-(6-methyl-2-pyridyl)isoquinoline]cupric nitrate] stands 0.8 µg/mL; under `Cc1cccc(-c2cc3ccccc3c(N)n2)n1.Cc1cccc(-c2cc3ccccc3c(N)n2)n1.O=[N+]([O-])[O-].O=[N+]([O-])[O-].[Cu+2]` [VI (2), bis[1-amino-3-(6-methyl-2-pyridyl)isoquinoline]cupric nitrate], 0.8 µg/mL.
For `COc1cc2cc(-c3ccccn3)nc(N)c2cc1OC` [VIIIa], the minimal inhibitory concentration (MIC) under setting [2] worked out at 100 µg/mL (≈ 355 µM). Moreover, the “MIC with Cu” value (Table I) came to 12.5 µg/mL.
The like results for `Cc1cccc2c(N)nc(-c3ccccn3)cc12` [VIIIb] were, in that order, 1.5 µg/mL (≈ 6.38 µM) and 0.2 µg/mL.
In the same order, the values of `Cc1ccc2c(N)nc(-c3ccccn3)cc2c1` [VIIIc] are 3 µg/mL (≈ 12.8 µM) and 0.4 µg/mL.
For the compound `Cc1ccc2cc(-c3ccccn3)nc(N)c2c1` [VIIId], under setting [2], the MIC stood at 1.5 µg/mL (≈ 6.38 µM). Besides, for the setting “Table I”, the “MIC with Cu” value was 0.2 µg/mL.
On to `Nc1nc(-c2ccccn2)cc2ccc(Cl)cc12` [VIIIi], for which the “MIC with Cu” value (Table I) worked out at 0.2 µg/mL.
Turning to `Nc1nc(-c2ccccn2)cc2cccc(Cl)c12` [VIIIj], the MIC under setting [2] came to 100 µg/mL (≈ 391 µM). For the setting “Table I”, the “MIC with Cu” value amounted to 0.2 µg/mL.
Turning to `CCc1ccc2cc(-c3ccccn3)nc(N)c2c1` [VIIIk], under “Table I”, the “MIC with Cu” value is 0.2 µg/mL.
Regarding `Nc1nc(-c2ccccn2)cc2ccc(I)cc12` [VIIIl], for the setting “Table I”, the “MIC with Cu” value worked out at 0.2 µg/mL.
Same read-out and setting: the figure for `CCCc1nc(-c2ccccn2)cc2ccccc12.Cl` [XIIIf, 1-propyl-3-(2-pyridyl)isoquinoline hydrochloride] is 0.03 µg/mL; for `Clc1nc(-c2ccccn2)cc2ccccc12` [XIIc (2), 1-chloro-3-(2-pyridyl)isoquinoline] it is 0.06 µg/mL; for `c1ccc(-c2nc(-c3ccccn3)cc3ccccc23)cc1` [XIVb, 1-phenyl-3-(2-pyridyl)isoquinoline] it is 0.2 µg/mL.
On to `Nc1nc(-c2ncc[nH]2)cc2ccccc12.O=[N+]([O-])[O-].O=[N+]([O-])[O-].[Cu+2]` [XIXb (2), Mono[1-amino-3-(1H-imidazole-2-yl)isoquinoline]cupric nitrate], for which, for the setting “Table I”, the “MIC with Cu” value is 3 µg/mL and the MIC was 50 µg/mL.
In the same order, the values of `Nc1nc(-c2ncc[nH]2)cc2ccccc12.Nc1nc(-c2ncc[nH]2)cc2ccccc12.O=[N+]([O-])[O-].O=[N+]([O-])[O-].[Cu+2]` [XIXb (3), Bis[1-amino-3-(1H-imidazole-2-yl)isoquinoline]cupric nitrate] are 3 µg/mL and 50 µg/mL.
In the case of `Cc1cccc(-c2cc3ccccc3c(Cl)n2)n1` [XIb, 1-Chloro-3-(6-methyl-2-pyridyl)isoquinoline], the “MIC with Cu” value (Table I) was 1 µg/mL.
The same measure, in the same setting: under `Cc1cccc(-c2cc3ccccc3cn2)n1` [XIc, 3-(6-methyl-2-pyridyl)isoquinoline] stands 0.1 µg/mL.
On to `C=Cn1ccnc1-c1nc(N)c2ccccc2n1.C=Cn1ccnc1-c1nc(N)c2ccccc2n1.O=[N+]([O-])[O-].[Cu+]` [XVIIIb (1), Bis[4-amino-2-(1-ethenyl-1H-imidazole-2-yl)quinazoline]cuprous nitrate], for which, where the note is “Table I”, the “MIC with Cu” value came out at 0.2 µg/mL and the MIC worked out at 12.5 µg/mL.
The like results for `C=Cn1ccnc1-c1nc(N)c2ccccc2n1.O=[N+]([O-])[O-].O=[N+]([O-])[O-].[Cu+2]` [XVIIIb (2), Mono[4-amino-2-(1-ethenyl-1H-imidazole-2-yl)quinazoline]cupric nitrate] were, in that order, 0.2 µg/mL and 6 µg/mL.
The like results for `C=Cn1ccnc1-c1nc(N)c2ccccc2n1.C=Cn1ccnc1-c1nc(N)c2ccccc2n1.O=[N+]([O-])[O-].O=[N+]([O-])[O-].[Cu+2]` [XVIIIb (3), Bis[4-amino-2-(1-ethenyl-1H-imidazole-2-yl)quinazoline]cupric nitrate] were, in that order, 0.2 µg/mL and 12.5 µg/mL.
The like results for `C=Cn1ccnc1-c1cc2ccccc2c(N)n1.C=Cn1ccnc1-c1cc2ccccc2c(N)n1.O=[N+]([O-])[O-].[Cu+]` [XVIId (1), Bis[1-amino-3-(1-ethenyl-1H-imidazole-2-yl)isoquinoline]cuprous nitrate] were, in that order, 0.2 µg/mL and 25 µg/mL.
For the compound `C=Cn1ccnc1-c1cc2ccccc2c(N)n1.O=[N+]([O-])[O-].O=[N+]([O-])[O-].[Cu+2]` [XVIId (2), Mono[1-amino-3-(1-ethenyl-1H-imidazole-2-yl)isoquinoline]cupric nitrate], under “Table I”, the “MIC with Cu” value is 0.2 µg/mL and the minimal inhibitory concentration (MIC) stood at 12.5 µg/mL.
The like results for `C=Cn1ccnc1-c1cc2ccccc2c(N)n1.C=Cn1ccnc1-c1cc2ccccc2c(N)n1.O=[N+]([O-])[O-].O=[N+]([O-])[O-].[Cu+2]` [XVIId (3), Bis[1-amino-3-(1-ethenyl-1H-imidazole-2-yl)isoquinoline]cupric nitrate] were, in that order, 0.2 µg/mL and 12.5 µg/mL.
As for `Cn1ccnc1-c1nc(N)c2ccccc2n1` [XVIa, 4-amino-2-(1-methyl-1H-imidazole-2-yl)quinazoline], the MIC under setting [2] was found to be 25 µg/mL (≈ 111 µM). Further, for the setting “Table I”, the “MIC with Cu” value was 0.2 µg/mL.
Take `Cn1ccnc1-c1nc(N)c2ccccc2n1.Cn1ccnc1-c1nc(N)c2ccccc2n1.O=[N+]([O-])[O-].[Cu+]` [XVIb (1), Bis[4-amino-2-(1-methyl-1H-imidazole-2-yl)quinazoline]cuprous nitrate]: where the note is “Table I”, the “MIC with Cu” value turned out to be 0.2 µg/mL and the minimum inhibitory concentration (MIC) amounted to 6 µg/mL.
The like results for `Cn1ccnc1-c1nc(N)c2ccccc2n1.O=[N+]([O-])[O-].O=[N+]([O-])[O-].[Cu+2]` [XVIb (2), Mono[4-amino-2-(1-methyl-1H-imidazole-2-yl)quinazoline]cupric nitrate] were, in that order, 0.4 µg/mL and 6 µg/mL.
